Experimental data taken from ChEMBL document CHEMBL6177977, “Discovery of a Potent, Selective, and Brain-Penetrant Checkpoint Kinase 1 Inhibitor, BEN-28010, for the Treatment of Glioblastoma” (J Med Chem, 2025).
Values after ≈ are worked out from the molar mass of the structure shown.

How the values were obtained:
[1] = target: T1, Serine/threonine-protein kinase Chk1 (Homo sapiens, UniProt O14757); assay: Inhibition of N-terminal GST-fused human full length CHK1 (1 to 476 residues) expressed in baculovirus-infected Sf21 cells using STK1 S1 as substrate preincubated for 30 mins in presence of ATP followed by MgCl2 addition and measured after 60 mins by TR-FRET assay
T1 sequence (O14757 whole entry): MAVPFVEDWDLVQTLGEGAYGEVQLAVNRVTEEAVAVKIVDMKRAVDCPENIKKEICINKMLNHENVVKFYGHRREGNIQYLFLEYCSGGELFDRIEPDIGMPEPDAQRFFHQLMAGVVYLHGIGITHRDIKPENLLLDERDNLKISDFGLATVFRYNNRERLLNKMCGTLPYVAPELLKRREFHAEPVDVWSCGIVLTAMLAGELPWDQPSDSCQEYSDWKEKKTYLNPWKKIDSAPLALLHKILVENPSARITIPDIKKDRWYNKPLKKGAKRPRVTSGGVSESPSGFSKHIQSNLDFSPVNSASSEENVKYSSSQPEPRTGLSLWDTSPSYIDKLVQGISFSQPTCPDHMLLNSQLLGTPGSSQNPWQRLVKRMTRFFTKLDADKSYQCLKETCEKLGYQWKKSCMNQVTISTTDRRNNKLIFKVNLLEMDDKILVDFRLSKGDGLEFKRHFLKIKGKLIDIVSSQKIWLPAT

MDR1 = assay: in vitro; conditions: dog, MDCK-MDR1
Description: Efflux ratio of apparent permeability across basal to apical side over apical to basal side in dog MDCK-MDR1 cells at 1 uM measured after 1 day by LC-MS/MS analysis

BCRP = assay: in vitro; conditions: dog
Description: Efflux ratio of apparent permeability across basal to apical side over apical to basal side in dog MDCK-BCRP cells at 1 uM measured after 1 day by LC-MS/MS analysis

[2] = target: Serine/threonine-protein kinase Chk2 (Homo sapiens, UniProt O96017); assay: biochemical
Serine/threonine-protein kinase Chk2, sequence (O96017 whole entry): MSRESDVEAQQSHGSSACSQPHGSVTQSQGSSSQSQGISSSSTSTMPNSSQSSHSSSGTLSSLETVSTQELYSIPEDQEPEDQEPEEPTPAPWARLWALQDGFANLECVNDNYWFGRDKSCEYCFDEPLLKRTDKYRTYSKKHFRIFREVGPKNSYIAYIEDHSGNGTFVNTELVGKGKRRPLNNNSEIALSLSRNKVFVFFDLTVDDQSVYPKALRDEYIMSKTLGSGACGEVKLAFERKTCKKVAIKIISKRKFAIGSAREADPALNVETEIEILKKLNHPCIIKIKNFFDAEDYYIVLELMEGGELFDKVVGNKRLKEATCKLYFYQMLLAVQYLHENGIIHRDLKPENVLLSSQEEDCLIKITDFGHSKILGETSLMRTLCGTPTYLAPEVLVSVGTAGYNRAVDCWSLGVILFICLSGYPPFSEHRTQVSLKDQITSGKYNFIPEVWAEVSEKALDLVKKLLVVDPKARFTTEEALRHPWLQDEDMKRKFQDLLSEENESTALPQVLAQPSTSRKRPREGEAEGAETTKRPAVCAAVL
Description: Inhibition of N-terminal GST-fused human full length CHK2 (1 to 543 residues) expressed in baculovirus-infected Sf21 cells using STK1 S1 as substrate preincubated for 30 mins in presence of ATP followed by MgCl2 addition and measured after 60 mins by TR-FRET assay

[3] = target: T1, Serine/threonine-protein kinase Chk1; assay: Inhibition of human full length recombinant CHK1 using KKKVSRSGLYRSPSMPENLNRPR as substrate in presence of [gamma-33P]ATP incubated for 40 mins by radiometric assay
[4] = Apparent permeability of the compound in dog MDCK-MDR1 cells at 1 uM measured after 1 day by LC-MS/MS analysis; type: ADME, cell-based, Canis lupus familiaris
GBM [5] = assay: Antitumor activity against human patient-derived GBM cells implanted in orthotopic NOG mouse model assessed as lifespan of animal's survival at 100 mg/kg, po qd with dosing schedule of 2 days on and 11 days off for 28 days (reference value: 25.5 days); type: functional; conditions: time 28 day
[6] = Plasma concentration required to achieve 50% in vivo inhibition of CHK1 assessed as accumulation of CHK1 phosphorylation at Ser345 residue in tumors in po dosed GBM LN-229 CDX NOD/SCID mouse model; type: organism-based; conditions: LN-229, Plasma
[7] = target: Voltage-dependent L-type calcium channel subunit alpha-1C (Homo sapiens, UniProt Q13936); assay: Inhibition of human Cav1.2 transfected in CHO cells by automated electrophysiological analysis; type: cell-based
Voltage-dependent L-type calcium channel subunit alpha-1C, sequence (Q13936 whole entry): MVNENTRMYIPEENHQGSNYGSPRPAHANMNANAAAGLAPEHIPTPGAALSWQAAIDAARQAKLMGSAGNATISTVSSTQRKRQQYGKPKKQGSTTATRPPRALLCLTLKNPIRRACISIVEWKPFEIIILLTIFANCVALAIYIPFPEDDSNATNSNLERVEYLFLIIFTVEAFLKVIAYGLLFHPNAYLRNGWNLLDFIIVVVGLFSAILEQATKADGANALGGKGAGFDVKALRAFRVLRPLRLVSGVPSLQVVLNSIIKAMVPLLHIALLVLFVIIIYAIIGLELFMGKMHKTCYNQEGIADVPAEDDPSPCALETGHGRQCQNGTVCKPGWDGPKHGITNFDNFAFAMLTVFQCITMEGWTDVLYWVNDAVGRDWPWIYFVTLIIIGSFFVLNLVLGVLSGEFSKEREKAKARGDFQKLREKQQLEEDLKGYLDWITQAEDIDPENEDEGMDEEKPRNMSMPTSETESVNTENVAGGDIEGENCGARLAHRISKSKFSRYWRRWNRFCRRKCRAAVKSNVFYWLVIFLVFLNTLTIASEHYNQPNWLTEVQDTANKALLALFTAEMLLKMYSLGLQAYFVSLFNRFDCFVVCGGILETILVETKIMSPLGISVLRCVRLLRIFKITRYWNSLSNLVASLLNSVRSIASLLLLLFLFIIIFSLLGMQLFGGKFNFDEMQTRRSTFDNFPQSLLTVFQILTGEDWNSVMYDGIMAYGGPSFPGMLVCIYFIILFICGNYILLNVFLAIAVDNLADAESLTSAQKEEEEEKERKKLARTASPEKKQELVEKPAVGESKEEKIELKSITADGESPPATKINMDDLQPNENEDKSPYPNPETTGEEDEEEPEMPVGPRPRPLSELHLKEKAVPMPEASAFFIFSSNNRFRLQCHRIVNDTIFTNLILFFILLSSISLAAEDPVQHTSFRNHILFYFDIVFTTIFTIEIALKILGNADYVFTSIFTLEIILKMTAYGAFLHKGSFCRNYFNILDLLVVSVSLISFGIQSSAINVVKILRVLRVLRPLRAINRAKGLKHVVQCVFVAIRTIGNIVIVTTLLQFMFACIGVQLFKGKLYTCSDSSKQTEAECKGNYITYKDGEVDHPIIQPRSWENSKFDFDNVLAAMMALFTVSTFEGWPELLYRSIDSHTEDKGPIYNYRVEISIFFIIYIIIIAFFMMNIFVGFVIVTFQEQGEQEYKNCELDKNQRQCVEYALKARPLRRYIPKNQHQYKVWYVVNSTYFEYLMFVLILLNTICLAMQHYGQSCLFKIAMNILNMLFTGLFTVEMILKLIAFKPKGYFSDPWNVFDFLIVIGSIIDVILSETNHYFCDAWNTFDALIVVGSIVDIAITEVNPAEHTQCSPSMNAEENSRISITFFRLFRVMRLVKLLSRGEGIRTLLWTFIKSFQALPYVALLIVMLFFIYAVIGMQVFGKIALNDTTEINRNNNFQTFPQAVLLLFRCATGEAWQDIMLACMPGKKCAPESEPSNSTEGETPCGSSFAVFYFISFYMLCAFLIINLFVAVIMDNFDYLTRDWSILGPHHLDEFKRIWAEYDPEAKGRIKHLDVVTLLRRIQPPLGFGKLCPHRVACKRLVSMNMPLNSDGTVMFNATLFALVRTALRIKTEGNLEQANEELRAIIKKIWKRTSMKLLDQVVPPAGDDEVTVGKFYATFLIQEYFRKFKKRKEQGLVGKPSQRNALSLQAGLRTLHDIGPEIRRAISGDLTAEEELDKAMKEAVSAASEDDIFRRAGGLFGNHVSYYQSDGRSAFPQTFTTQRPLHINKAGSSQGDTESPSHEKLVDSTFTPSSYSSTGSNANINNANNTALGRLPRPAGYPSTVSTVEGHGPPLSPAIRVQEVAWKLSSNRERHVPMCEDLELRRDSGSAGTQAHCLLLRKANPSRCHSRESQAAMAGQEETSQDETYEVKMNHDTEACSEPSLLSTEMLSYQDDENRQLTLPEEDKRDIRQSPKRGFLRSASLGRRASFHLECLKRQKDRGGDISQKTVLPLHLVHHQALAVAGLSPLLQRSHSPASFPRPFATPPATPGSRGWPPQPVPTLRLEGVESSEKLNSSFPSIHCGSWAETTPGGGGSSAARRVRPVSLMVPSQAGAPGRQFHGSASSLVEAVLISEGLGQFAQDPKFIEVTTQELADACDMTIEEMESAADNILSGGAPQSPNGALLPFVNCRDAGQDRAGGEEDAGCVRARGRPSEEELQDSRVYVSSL

[8] = target: T1, Serine/threonine-protein kinase Chk1; assay: Inhibition of CHK1 in neocarzinostatin-stimulated human SW620 cells assessed as inhibition of CHK1 phosphorylation at Ser296 residue incubated for 2 hrs by sandwich ELISA; type: cell-based
[9] = target: Sodium channel protein type 5 subunit alpha (Homo sapiens, UniProt Q14524); assay: Inhibition of human Nav1.5 transfected in CHO cells by automated electrophysiological analysis; type: cell-based
Sodium channel protein type 5 subunit alpha, sequence (Q14524 whole entry): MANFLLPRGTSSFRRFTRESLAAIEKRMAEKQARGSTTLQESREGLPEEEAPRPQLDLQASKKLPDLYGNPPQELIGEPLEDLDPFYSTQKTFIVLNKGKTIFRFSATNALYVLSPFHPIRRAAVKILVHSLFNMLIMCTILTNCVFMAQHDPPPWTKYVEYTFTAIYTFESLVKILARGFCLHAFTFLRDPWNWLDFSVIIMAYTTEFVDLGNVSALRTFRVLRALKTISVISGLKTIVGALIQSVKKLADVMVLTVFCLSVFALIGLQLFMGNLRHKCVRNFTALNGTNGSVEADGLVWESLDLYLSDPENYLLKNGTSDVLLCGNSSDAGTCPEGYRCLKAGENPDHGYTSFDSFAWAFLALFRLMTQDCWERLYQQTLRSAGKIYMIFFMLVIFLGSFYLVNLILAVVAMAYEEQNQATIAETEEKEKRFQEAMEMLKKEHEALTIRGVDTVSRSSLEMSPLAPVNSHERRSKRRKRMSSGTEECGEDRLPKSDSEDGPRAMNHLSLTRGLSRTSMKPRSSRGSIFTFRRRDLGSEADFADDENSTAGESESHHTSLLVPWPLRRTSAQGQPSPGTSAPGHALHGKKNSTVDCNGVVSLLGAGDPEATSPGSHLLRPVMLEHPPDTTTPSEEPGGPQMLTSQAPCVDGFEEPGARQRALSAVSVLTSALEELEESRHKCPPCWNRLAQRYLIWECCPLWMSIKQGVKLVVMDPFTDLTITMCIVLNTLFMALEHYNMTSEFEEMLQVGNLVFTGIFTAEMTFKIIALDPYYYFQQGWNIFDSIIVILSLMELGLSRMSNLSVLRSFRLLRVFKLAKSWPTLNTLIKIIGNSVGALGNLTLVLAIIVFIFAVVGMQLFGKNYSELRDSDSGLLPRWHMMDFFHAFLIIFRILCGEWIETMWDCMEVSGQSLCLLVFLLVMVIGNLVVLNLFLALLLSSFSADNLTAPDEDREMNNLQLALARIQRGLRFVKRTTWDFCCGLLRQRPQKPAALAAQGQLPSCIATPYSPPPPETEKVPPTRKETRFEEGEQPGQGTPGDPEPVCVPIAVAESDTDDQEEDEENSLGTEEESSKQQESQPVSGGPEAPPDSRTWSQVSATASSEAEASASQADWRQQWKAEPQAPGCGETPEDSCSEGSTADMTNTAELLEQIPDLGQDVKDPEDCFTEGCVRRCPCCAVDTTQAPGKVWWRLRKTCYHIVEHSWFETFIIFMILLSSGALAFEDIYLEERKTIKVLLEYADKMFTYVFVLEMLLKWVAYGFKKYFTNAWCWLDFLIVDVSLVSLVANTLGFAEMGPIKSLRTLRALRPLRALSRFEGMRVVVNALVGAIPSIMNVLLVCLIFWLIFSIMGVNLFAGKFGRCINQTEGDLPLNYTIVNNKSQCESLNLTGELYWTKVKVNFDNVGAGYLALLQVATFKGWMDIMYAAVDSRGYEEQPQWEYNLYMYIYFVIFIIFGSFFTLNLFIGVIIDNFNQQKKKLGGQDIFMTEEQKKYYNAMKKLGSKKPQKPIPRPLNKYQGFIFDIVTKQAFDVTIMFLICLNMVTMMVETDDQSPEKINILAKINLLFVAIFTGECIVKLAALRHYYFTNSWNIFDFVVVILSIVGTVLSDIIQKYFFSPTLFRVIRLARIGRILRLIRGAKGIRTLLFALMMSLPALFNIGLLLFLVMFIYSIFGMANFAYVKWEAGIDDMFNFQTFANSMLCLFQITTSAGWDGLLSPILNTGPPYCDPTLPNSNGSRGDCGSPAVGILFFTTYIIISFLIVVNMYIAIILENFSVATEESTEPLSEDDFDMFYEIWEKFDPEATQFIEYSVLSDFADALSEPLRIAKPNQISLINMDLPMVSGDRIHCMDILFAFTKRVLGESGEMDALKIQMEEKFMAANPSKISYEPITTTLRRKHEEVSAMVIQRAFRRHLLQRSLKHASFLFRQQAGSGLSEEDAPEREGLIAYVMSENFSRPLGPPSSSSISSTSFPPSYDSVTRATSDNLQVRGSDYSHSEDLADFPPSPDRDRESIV

GBM [10] = assay: Antitumor activity against human patient-derived GBM cells implanted in orthotopic NOG mouse model assessed as lifespan of animal's survival at 30 mg/kg, po qd for 28 days (reference value: 25.5 days); type: functional; conditions: time 28 day
GBM [11] = assay: Antitumor activity against human patient-derived GBM cells implanted in orthotopic NOG mouse model assessed as lifespan of animal's survival at 50 mg/kg, po qd with dosing schedule of 3 days on and 4 days off for 28 days (reference value: 25.5 days); type: functional; conditions: time 28 day
in vivo = conditions: Sprague-Dawley, rat, brain and plasma, iv, 1 mg/kg
Description: Unbound brain-to-plasma concentration ratio in Sprague-Dawley rat at 1 mg/kg, iv measured after 15 mins by rapid equilibrium dialysis method

[12] = Intrinsic clearance in rat liver microsomes measured per mg protein; type: ADME, Microsome; conditions: read-out: CLH
[13] = Kinetic aqueous solubility of the compound at 250 uM measured after 2 hrs by RP-UPLC-DAD analysis; type: physicochemical; conditions: buffer, read-out: Kinetic_solubility
in vitro = conditions: dog, MDCK
Description: Apparent permeability of the compound across apical to basolateral side in dog MDCK cells at 1 uM measured after 1 day by LC-MS/MS analysis

[14] = Intrinsic clearance in human liver microsomes measured per mg protein; type: ADME, Microsome; conditions: read-out: CLH
[15] = target: Voltage-gated inwardly rectifying potassium channel KCNH2 (Homo sapiens, UniProt Q12809); assay: Inhibition of hERG expressed in HEK cells by electrophysiology; type: toxicity, cell-based
GBM [16] = assay: Antitumor activity against human patient-derived GBM cells implanted in orthotopic NOG mouse model assessed as lifespan of animal's survival at 20 mg/kg, ip qd with dosing schedule of 5 days on and 2 days off for 28 days (reference value: 25.5 days); type: functional; conditions: time 28 day

SMILES | IC50 [1] [nM] | efflux ratio at 24 h, 1 µM (MDR1) | efflux ratio at 24 h, 1 µM (BCRP) | IC50 [2] [nM] | also measured
CN1CC2(CCN(c3nc(Nc4cn(C(F)F)cn4)cnc3C#N)C2)C1 | 14 | 34 | > 50 |  | 
CN1CC2(C1)CN(c1ccc(-n3cnc(Nc4cnc(C#N)cn4)c3)cc1)C2 | 31 |  |  |  | 
CN(C)[C@H]1CN(c2ccc(-n3cnc(Nc4cnc(C#N)cn4)c3)cc2)C[C@@H]1F | 5 |  |  | 1310 | 
Cc1cc(N2CCN(C)CC2)ccc1-n1cnc(Nc2cnc(C#N)cn2)c1 | 464 |  |  |  | 
CN(C)[C@]1(C)CCN(c2ccc(-n3cnc(Nc4cnc(C#N)cn4)c3)cc2)C1 | 2 | 3.6 | 1.5 | 1100 | 
C[C@@H]1CN(c2ccc(-n3cnc(Nc4cnc(C#N)cn4)c3)cc2)C[C@@H]1N(C)C | 16 |  |  | > 10000 | 
CN(C)[C@H]1CCN(c2ccc(-n3cnc(Nc4cnc(C#N)cn4)c3)cc2)C1 | 68 |  |  |  | 
N#Cc1cnc(Nc2cn(-c3ccccc3)cn2)cn1 |  | 0.6 | 1 |  | IC50 [3]: 549 nM
N#Cc1cnc(Nc2cn(C(F)F)cn2)cn1 |  | 0.9 |  |  | Papp at 24 h, 1 µM [4]: 66 ×10⁻⁶ cm/s; IC50 [3]: 3000 nM
CN(C)C1CN(c2ccc(-n3cnc(Nc4cnc(C#N)cn4)c3)cc2)C1 | 9 |  |  | > 10000 | 
C[C@H]1CN(c2ccc(-n3cnc(Nc4cnc(C#N)cn4)c3)cc2)C[C@@H]1N(C)C | 4 |  |  | 2720 | 
CN(C)C1CCN(c2ccc(-n3cnc(Nc4cnc(C#N)cn4)c3)cc2)CC1 | 11 | 26 | 23 | 8760 | 
CN(C)[C@H]1CN(c2ccc(-n3cnc(Nc4cnc(C#N)cn4)c3)cc2)C[C@H]1F | 14 |  |  | 3190 | 
CN(C)[C@@H]1CCN(c2ccc(-n3cnc(Nc4cnc(C#N)cn4)c3)cc2)C1 | 4 |  |  |  | Survival (GBM [5]): 50 days; IC50 [6]: 209 nM; IC50 [7]: > 30000 nM; IC50 [8]: 450 nM; IC50 [9]: > 30000 nM; Survival (GBM [10]): 34 days; Survival (GBM [11]): 39.5 days
CCN1CCN(c2ccc(-n3cnc(Nc4cnc(C#N)cn4)c3)cc2)CC1 | 21 |  |  |  | 
N#Cc1cnc(Nc2cn(-c3ccc(N4CCN(CCF)CC4)cc3)cn2)cn1 | 40 | < 1 | 1.4 | > 10000 | 
CN1CCN(c2ccc(-n3cnc(Nc4cnc(C#N)cn4)c3)cc2)CC1 | 15 | 1.7 | 3.7 | > 10000 | Kp uu at […] (in vivo): 0.4; microsomal CLint [12]: 47 µL/min/mg; solubility kinetic at 2 h, 250 µM [13]: 59 µM (≈ 21.3 µg/mL); Papp A→B at 24 h, 1 µM (in vitro): 58 ×10⁻⁶ cm/s; microsomal CLint [14]: < 14 µL/min/mg; IC50 [15]: > 30000 nM
CN1CC[C@@H]2CN(c3ccc(-n4cnc(Nc5cnc(C#N)cn5)c4)cc3)C[C@@H]21 | 17 | 2.5 | 2.7 | > 10000 | 
CCN(C)[C@@H]1CCN(c2ccc(-n3cnc(Nc4cnc(C#N)cn4)c3)cc2)C1 | 4 |  |  | 2070 | 
CN1CC2(CCN(c3nc(Nc4cn(-c5ccccn5)cn4)cnc3C#N)C2)C1 | 2 | > 50 | > 50 |  | 
CN1CC2(CCN(c3ccc(-n4cnc(Nc5cnc(C#N)cn5)c4)cc3)C2)C1 | 12 |  |  | > 10000 | 
Cn1nnc2c(C(N)=O)ncn2c1=O [TEMOZOLOMIDE] |  |  |  |  | Survival (GBM [16]): 43 days
